# Assays:
# [1] = test system: giant foxtail; assay: Test A pre-/postemergence herbicide test; assay type: in vivo, Setaria faberi
# How it was run: (§1)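 Seeds sown in sandy loam received a preemergence directed soil spray of compound in non-phytotoxic solvent with surfactant; postemergence plants (2–10 cm, one- to two-leaf stage) were sprayed to runoff at the same time. After ~10 days in greenhouse, injury was rated visually versus untreated controls (0 = no effect, 100 = complete control).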
# [2] = test system: lambsquarters; assay: Test C pre-/postemergence herbicide test; assay type: in vivo, Chenopodium album; conditions: preemergence
# From the text: (§2) Seeds of plant species selected from bermudagrass (Cynodon dactylon (L.) Pers.), Surinam grass (Urochloa decumbens (Staph) R. D. Webster, previously named Brachiaria decumbens Stapf), cocklebur (Xanthium strumarium L.), corn (Zea mays L.), large crabgrass (Digitaria sanguinalis (L.) Scop.), woolly cupgrass (Eriochloa villosa (Thunb.) Kunth), giant foxtail (Setaria faberi Herrm.), goosegrass (Eleusine indica (L.) Gaertn.), johnsongrass (Sorghum halepense (L.) Pers.), kochia (Kochia scoparia (L.) Schrad.), lambsquarters (Chenopodium album L.), morningglory (Ipomoea coccinea L.), eastern black nightshade (Solanum ptycanthum Dunal), yellow nutsedge (Cyperus esculentus L.), pigweed (Amaranthus retroflexus L.), common ragweed (Ambrosia elatior L.), soybean (Glycine max (L.) Merr.), common (oilseed) sunflower (Helianthus annuus L.) and velvetleaf (Abutilon theophrasti Medik.) were planted and treated preemergence with test chemicals formulated in a non-phytotoxic solvent mixture which included a surfactant.
# (§3) At the same time, plants selected from these crop and weed species and also winter barley (Hordeum vulgare L.), blackgrass (Alopecurus myosuroides Huds.), canarygrass (Phalaris minor Retz.), chickweed (Stellaria media (L.) Vill.), downy bromegrass (Bromus tectorum L.), green foxtail (Setaria viridis (L.) Beauv.), Italian ryegrass (Lolium multiflorum Lam.), wheat (Triticum aestivum L.), wild oat (Avenafatua L.) and windgrass (Apera spica-venti (L.) Beauv.) were treated with postemergence applications of some of the test chemicals formulated in the same manner. Plants ranged in height from 2 to 18 cm (1- to 4-leaf stage) for postemergence treatments. Plant species in the flooded paddy test consisted of rice (Oryza sativa), smallflower umbrella sedge (Cyperus difformis L.), ducksalad (Heteranthera limosa (Sw.) Willd.) and barnyardgrass (Echinochloa crus-galli (L.) Beauv.) grown to the 2-leaf stage for testing. Treated plants and controls were maintained in a greenhouse for 12 to 14 days, after which time all species were compared to controls and visually evaluated. Plant response ratings, summarized in Table C, are based on a scale of 0 to 100 where 0 is no effect and 100 is complete control. A dash (-) response means no test result.
# [3] = test system: morningglory; assay: Test A pre-/postemergence herbicide test; assay type: in vivo, Ipomoea spp.
# How it was run: as §1
# [4] = test system: velvetleaf; assay: Test C pre-/postemergence herbicide test; assay type: in vivo, Abutilon theophrasti; conditions: preemergence
# From the text: as §2, §3
# [5] = test system: morningglory; assay: Test C pre-/postemergence herbicide test; assay type: in vivo, Ipomoea coccinea; parameters: key to Plant response rating, Morningglory: 0 = no effect, 100 = complete control; conditions: preemergence
# From the text: as §2, §3
# [6] = test system: johnsongrass; assay: Test C pre-/postemergence herbicide test; assay type: in vivo, Sorghum halepense; conditions: preemergence
# From the text: as §2, §3
# [7] = test system: barnyardgrass; assay: Test C flooded paddy test; assay type: in vivo, Echinochloa crus-galli; conditions: for Plant response rating, Barnyardgrass: 500 g ai/ha, visual rating after 12 to 14 days
# How it was run: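 Plants were grown to the 1- to 4-leaf stage (2–18 cm) and then treated postemergence, or grown to the 2-leaf stage for the flooded paddy test. They were held in a greenhouse for 12 to 14 days and then scored by eye against controls, where 0 is no effect and 100 is complete control.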
# [8] = test system: rice; assay: Test B pre-/postemergence herbicide test; assay type: in vivo, Oryza sativa; conditions: preemergence
# How it was run: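 Plants compared with untreated controls 13–15 days post-treatment and given a visual 0–100 injury score. Applications: preemergence to seeds; postemergence at 1- to 4-leaf (2–18 cm); paddy species flooded, 2-leaf stage. Vehicle non-phytotoxic, surfactant included.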
# [9] = test system: smallflower umbrella sedge; assay: Test C flooded paddy test; assay type: in vivo, Cyperus difformis; conditions: for Plant response rating, Sedge, Umbrella: 500 g ai/ha, visual rating after 12 to 14 days
# [10] = Postemergence, 500 g ai/ha, 0 to 100 scale, 0 no effect, 100 complete control
# [11] = Postemergence, 2000 g ai/ha, 0 to 100 scale, 0 no effect, 100 complete control
# [12] = Preemergence, 500 g ai/ha, visual rating, 0 to 100 scale (0 no effect, 100 complete control)
# [13] = Preemergence, 2000 g ai/ha, 0 to 100 scale, 0 no effect, 100 complete control
# [14] = 125 g ai/ha, scale 0 (no effect) to 100 (complete control), visual, 12 to 14 days
# [15] = 250 g ai/ha, scale 0 to 100 (0 no effect, 100 complete control), visual, 12 to 14 days
# [16] = 500 g ai/ha, scale 0 to 100 (0 no effect, 100 complete control), visual, 12 to 14 days
# [17] = Preemergence, 2000 g ai/ha, visual rating, 0 to 100 scale (0 no effect, 100 complete control)
# [18] = preemergence, 500 g ai/ha, visual injury, 0 to 100 scale (0 no effect, 100 complete control)
# [19] = 62 g ai/ha, scale 0 to 100 (0 no effect, 100 complete control)
# [20] = 125 g ai/ha, scale of 0 to 100, 0 is no effect, 100 is complete control
# [21] = 250 g ai/ha, scale of 0 to 100, 0 is no effect, 100 is complete control
# [22] = scale 0 to 100 (0 no effect, 100 complete control)
# [23] = 125 g ai/ha, scale 0 to 100 (0 no effect, 100 complete control)
smiles,measurement,setting,value
CCCCn1nc(C(C)(C)C)cc1C(=O)Nc1cccc(C(=O)NCC)c1 [Compound 41],"Plant response rating, Foxtail, Giant",[1]; [10],20
same,"Plant response rating, Foxtail, Giant",[1]; [11],35
same,"Foxtail, Giant plant response rating",[1]; [12],30
same,"Foxtail, Giant plant response rating",[1]; [13],70
same,"Plant response rating, Lambsquarters","[2]; 31 g ai/ha, scale 0 to 100",0
same,"Plant response rating (0 = no effect, 100 = complete control), Lambsquarters",[2]; 62 g ai/ha,50
same,"Plant response rating, Lambsquarters",[2]; [14],90
same,"Plant response rating, Lambsquarters",[2]; [15],100
same,"Plant response rating, Morningglory",[3]; [10],10
same,"Plant response rating, Morningglory",[3]; [11],10
same,Morningglory plant response rating,[3]; [12],20
same,Morningglory plant response rating,[3]; [13],45
same,"Plant response rating, Velvetleaf","[4]; 31 g ai/ha, scale 0 to 100",0
same,"Plant response rating (0 = no effect, 100 = complete control), Velvetleaf",[4]; 62 g ai/ha,40
same,"Plant response rating, Velvetleaf",[4]; [14],40
same,"Plant response rating, Velvetleaf",[4]; [15],100
same,"Plant response rating, Morningglory","[5]; 31 g ai/ha, scale 0 to 100",0
same,"Plant response rating (0 = no effect, 100 = complete control), Morningglory",[5]; 62 g ai/ha,0
same,"Plant response rating, Morningglory",[5]; [14],0
same,"Plant response rating, Morningglory",[5]; [15],20
same,"Plant response rating, Johnsongrass","[6]; 31 g ai/ha, scale 0 to 100",0
same,"Plant response rating (0 = no effect, 100 = complete control), Johnsongrass",[6]; 62 g ai/ha,0
same,"Plant response rating, Johnsongrass",[6]; [15],20
CCN(CC)C(=O)c1cccc(NC(=O)c2nn(C(C)(C)C)nc2C)c1 [Compound 418],"Plant response rating, Lambsquarters","[2]; 62 g ai/ha, scale 0 to 100",95
same,"Plant response rating (0 = no effect, 100 = complete control), Lambsquarters",[2]; 125 g ai/ha,100
same,"Plant response rating, Lambsquarters","[2]; 250 g ai/ha, scale 0-100",100
same,"Plant response rating, Lambsquarters",[2]; [16],100
same,"Plant response rating, Velvetleaf","[4]; 62 g ai/ha, scale 0 to 100",90
same,"Plant response rating (0 = no effect, 100 = complete control), Velvetleaf",[4]; 125 g ai/ha,95
same,"Plant response rating, Velvetleaf",[4]; [16],100
same,"Plant response rating, Morningglory","[5]; 62 g ai/ha, scale 0 to 100",20
same,"Plant response rating (0 = no effect, 100 = complete control), Morningglory",[5]; 125 g ai/ha,70
same,"Plant response rating, Morningglory",[5]; [16],100
same,"Plant response rating, Johnsongrass","[6]; 62 g ai/ha, scale 0 to 100",95
same,"Plant response rating (0 = no effect, 100 = complete control), Johnsongrass",[6]; 125 g ai/ha,95
same,"Plant response rating, Johnsongrass","[6]; 250 g ai/ha, scale 0-100",95
same,"Plant response rating, Johnsongrass",[6]; [16],95
CCc1nn(C(C)(C)C)nc1C(=O)Nc1cccc(C(=O)NC2CC2)c1 [Compound 417],"Foxtail, Giant plant response rating",[1]; [10],75
same,"Plant response rating, Foxtail, Giant",[1]; [11],85
same,"Foxtail, Giant plant response rating",[1]; [17],100
same,"Foxtail, Giant plant response rating",[1]; [18],90
same,"Plant response rating, Lambsquarters","[2]; 62 g ai/ha, scale 0 to 100",95
same,"Plant response rating (0 = no effect, 100 = complete control), Lambsquarters",[2]; 125 g ai/ha,100
same,"Plant response rating, Lambsquarters","[2]; 250 g ai/ha, scale 0-100",100
same,"Plant response rating, Lambsquarters",[2]; [16],100
same,Morningglory plant response rating,[3]; [10],70
same,"Plant response rating, Morningglory",[3]; [11],85
same,Morningglory plant response rating,[3]; [17],80
same,Morningglory plant response rating,[3]; [18],20
same,"Plant response rating, Velvetleaf","[4]; 62 g ai/ha, scale 0 to 100",75
same,"Plant response rating (0 = no effect, 100 = complete control), Velvetleaf",[4]; 125 g ai/ha,100
same,"Plant response rating, Velvetleaf",[4]; [16],100
same,"Plant response rating, Morningglory","[5]; 62 g ai/ha, scale 0 to 100",0
same,"Plant response rating (0 = no effect, 100 = complete control), Morningglory",[5]; 125 g ai/ha,20
same,"Plant response rating, Morningglory",[5]; [16],95
same,"Plant response rating, Johnsongrass","[6]; 62 g ai/ha, scale 0 to 100",100
same,"Plant response rating (0 = no effect, 100 = complete control), Johnsongrass",[6]; 125 g ai/ha,100
same,"Plant response rating, Johnsongrass","[6]; 250 g ai/ha, scale 0-100",100
same,"Plant response rating, Johnsongrass",[6]; [16],100
CCn1nc(C(C)(C)C)cc1C(=O)Nc1cccc(C(=O)NOC)c1 [Compound 67],Barnyardgrass plant response rating,[7]; [19],0
same,Barnyardgrass plant response rating,[7]; [20],0
same,Barnyardgrass plant response rating,[7]; [21],10
same,"Plant response rating, Barnyardgrass",[7]; [22],25
same,"Plant response rating, Foxtail, Giant",[1]; [10],10
same,"Plant response rating, Foxtail, Giant",[1]; [11],20
same,"Foxtail, Giant plant response rating",[1]; [12],0
same,"Foxtail, Giant plant response rating",[1]; [13],30
same,"Plant response rating, Morningglory",[3]; [10],5
same,"Plant response rating, Morningglory",[3]; [11],20
same,Morningglory plant response rating,[3]; [12],0
same,Morningglory plant response rating,[3]; [13],30
same,"Plant response rating, Rice","[8]; 125 g ai/ha, 0 to 100 scale, 0 is no effect, 100 is complete control",0
same,"Sedge, Umbrella plant response rating",[9]; [19],50
same,"Sedge, Umbrella plant response rating",[9]; [20],50
same,"Sedge, Umbrella plant response rating",[9]; [21],75
same,"Plant response rating, Sedge, Umbrella",[9]; [22],75
CCn1nc(C(C)(C)C)cc1C(=O)Nc1cccc(C(=O)N2CC=CC2)c1 [Compound 286],Barnyardgrass plant response rating,[7]; [19],40
same,Barnyardgrass plant response rating,[7]; [23],55
same,Barnyardgrass plant response rating,[7]; [21],70
same,"Plant response rating, Barnyardgrass",[7]; [22],80
same,"Foxtail, Giant plant response rating",[1]; [10],35
same,"Plant response rating, Foxtail, Giant",[1]; [11],75
same,"Foxtail, Giant plant response rating",[1]; [17],100
same,"Foxtail, Giant plant response rating",[1]; [18],60
same,Morningglory plant response rating,[3]; [10],20
same,"Plant response rating, Morningglory",[3]; [11],35
same,Morningglory plant response rating,[3]; [17],40
same,Morningglory plant response rating,[3]; [18],30
same,Rice plant response rating (0 to 100 scale),"[8]; 125 g ai/ha, 0 = no effect, 100 = complete control",30
same,"Plant response rating, Rice","[8]; 500 g ai/ha, visual rating, 0 = no effect, 100 = complete control",80
same,"Sedge, Umbrella plant response rating","[9]; 62 g ai/ha, scale 0 to 100",30
same,"Sedge, Umbrella plant response rating",[9]; [23],70
same,"Sedge, Umbrella plant response rating",[9]; [21],90
same,"Plant response rating, Sedge, Umbrella",[9]; [22],90

# Reference: patent publication US20060069132A1, “Azolecarboxamide herbicides” (priority 2004, published 2006)
